Results on twelve compounds are retold here after PubChem BioAssay (NCI).

Values joined by “and” are separate entries in the source; they are usually repeats but may differ in a detail not shown here. Equal entries are not always repeated.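 Five compound concentrations were applied to cells in 96-well plates for 48 hours; endpoints were derived by simple linear interpolation of the resulting dose-response curve. At the GI50, growth is halved. TGI is the concentration that stops growth completely.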

Some test systems named below: HOP-92 NSCLC; K-562 leukemia; 786-0 renal; SK-OV-3 ovarian; SNB-75 CNS; UO-31 renal; HT29 colon; OVCAR-4 ovarian; SN12C renal; SK-MEL-2 melanoma.
Common to all, as to experiment: growth of human tumour cells (NCI), 48 h

Take `COc1ccc(-c2nsc3c2NC(=O)CC3c2ccsc2)cc1` (stereo not given): the GI50 was 0.334 µM in the assay on HOP-92 NSCLC; 0.0469 µM in the assay on K-562 leukemia; 1.25 µM with 786-0 renal; 0.313 µM with SK-OV-3 ovarian; 0.119 µM with SNB-75 CNS; 1.84 µM in the assay with UO-31 renal. Also, the GI50 in the assay with HT29 colon is 0.0643 µM; with OVCAR-4 ovarian it was 3.47 µM; in the assay with SN12C renal it was 0.83 µM. Also, the TGI is 81.5 µM in the assay on HOP-92 NSCLC; greater than 100 µM in the assay on K-562 leukemia; greater than 100 µM in the assay with 786-0 renal; 13.7 µM with SK-OV-3 ovarian; greater than 100 µM with SNB-75 CNS; greater than 100 µM with UO-31 renal. Besides, the TGI in the assay on HT29 colon is 32.8 µM; in the assay on OVCAR-4 ovarian, greater than 100 µM; in the assay with SN12C renal, greater than 100 µM.

`O=C1C(Cl)=C(Nc2ccc(S(=O)(=O)c3ccc(NC4=C(Cl)C(=O)c5ccccc5C4=O)cc3)cc2)C(=O)c2ccccc21`: the GI50 in the assay with HOP-92 NSCLC was 1.96 µM; in the assay on K-562 leukemia, 1.63 µM; in the assay with 786-0 renal, 1.86 µM; in the assay on SK-OV-3 ovarian it was 2.4 µM; with SNB-75 CNS it was 1.04 µM; with UO-31 renal, 1.38 µM. In addition, in the assay on HT29 colon, the GI50 is 2 µM. In addition, the TGI in the assay on HOP-92 NSCLC was 3.44 µM; with K-562 leukemia it was 5.24 µM; in the assay on 786-0 renal, 3.29 µM; with SK-OV-3 ovarian it was 7.94 µM; in the assay with SNB-75 CNS it was 2.33 µM; with UO-31 renal, 2.85 µM. The same compound showed a TGI with HT29 colon of 5.02 µM.

In the case of `O=C(/C=C/c1ccccc1)c1ccc(Cl)cc1Cl`, the TGI in the assay on HOP-92 NSCLC was 69.3 µM; in the assay with K-562 leukemia, 30.1 µM; with 786-0 renal, 33.2 µM; with SK-OV-3 ovarian, 85.3 µM; in the assay on SNB-75 CNS, 92.7 µM; in the assay with UO-31 renal, greater than 100 µM. Also, the figures for the TGI with HT29 colon, in the assay with OVCAR-4 ovarian and with SN12C renal were 32.9 µM, 46.1 µM and 57.7 µM, respectively.

Consider `C=C1C(=O)OC2CC(C)C(/C=C/C(C)=O)=CCC12` (stereo not given), for which the TGI in the assay with HOP-92 NSCLC, in the assay with K-562 leukemia, in the assay on 786-0 renal, with SK-MEL-2 melanoma, in the assay on SK-OV-3 ovarian and in the assay with SNB-75 CNS was greater than 100 µM in each case. Further, the TGI with HT29 colon, in the assay with OVCAR-4 ovarian and in the assay on SN12C renal was greater than 100 µM each time.

Consider `CCn1cc(C(=O)O)c(=O)c2cc(F)c(N3CCN(S(=O)(=O)c4ccc(Cl)cc4Cl)CC3)cc21`, for which the GI50 is 1.22 µM with HOP-92 NSCLC; 4 µM in the assay on K-562 leukemia; 3.19 µM in the assay on 786-0 renal; 2.75 µM in the assay on SK-MEL-2 melanoma; 3 µM in the assay with SK-OV-3 ovarian; 2.2 µM with UO-31 renal. The GI50 in the assay on HT29 colon is 3.63 µM; with OVCAR-4 ovarian, 2.58 µM; in the assay with SN12C renal, 2.77 µM. Also, the TGI with HOP-92 NSCLC is 5.22 µM; in the assay on K-562 leukemia, greater than 100 µM; with 786-0 renal, 14.9 µM; in the assay on SK-MEL-2 melanoma it was 5.8 µM; in the assay on SK-OV-3 ovarian, 8.94 µM; in the assay with UO-31 renal, 5.77 µM. The TGI in the assay with HT29 colon, in the assay with OVCAR-4 ovarian and with SN12C renal was greater than 100 µM in each case.

`COC(=O)c1c(C(=O)OC)c(-c2ccccc2)n(-c2ccccc2)c(=O)c1-c1ccccc1`: the TGI is 83 µM in the assay on HOP-92 NSCLC; greater than 100 µM in the assay on K-562 leukemia; greater than 100 µM in the assay on 786-0 renal; greater than 100 µM in the assay with SK-OV-3 ovarian; 64 µM in the assay on SNB-75 CNS; greater than 100 µM with UO-31 renal. The TGI in the assay on HT29 colon was greater than 100 µM; with OVCAR-4 ovarian it was 78.1 µM; in the assay with SN12C renal it was greater than 100 µM.

As to `O=[N+]([O-])c1cccc(/C=N/Nc2ccc3ccccc3n2)c1O`, the TGI in the assay with HOP-92 NSCLC was greater than 46.9 µM; with K-562 leukemia it was greater than 100 µM; in the assay with 786-0 renal, 12.7 µM; with SK-MEL-2 melanoma, 34.8 µM; in the assay with SK-OV-3 ovarian it was 11.1 µM; in the assay on UO-31 renal it was 3 µM. The TGI in the assay with HT29 colon was 20.5 µM; in the assay with OVCAR-4 ovarian, greater than 39.6 µM; with SN12C renal it was 16.1 µM.

In the case of `OCCCN=C1CCCCC1`, the TGI in the assay with HOP-92 NSCLC, in the assay with K-562 leukemia, with 786-0 renal, in the assay with SK-MEL-2 melanoma, in the assay on SK-OV-3 ovarian and in the assay with UO-31 renal was greater than 100 µM in each case. The TGI in the assay on HT29 colon, in the assay on OVCAR-4 ovarian and in the assay on SN12C renal was greater than 100 µM throughout.

In the case of `N=C(N)c1ccc2oc3ccc(C(=N)N)cc3c(=O)c2c1`, the TGI in the assay on HOP-92 NSCLC, in the assay with K-562 leukemia, in the assay on 786-0 renal, with SK-MEL-2 melanoma, in the assay on SNB-75 CNS and in the assay with UO-31 renal was greater than 100 µM each time. Further, the TGI in the assay with HT29 colon, in the assay on OVCAR-4 ovarian and in the assay on SN12C renal was greater than 100 µM throughout.

With `CCCCCCCCCCCC/C=C\CC[C@@H](O)[C@H](O)CC[C@H](O)[C@@H]1CC[C@@H](CCCCCCCC2=C[C@H](C)OC2=O)O1`, the GI50 is 17.4 µM in the assay with HOP-92 NSCLC; 15.7 µM in the assay on 786-0 renal; 12.6 µM in the assay with SK-MEL-2 melanoma; 12.8 µM with SNB-75 CNS; 12.4 µM with UO-31 renal; 13 µM in the assay with SN12C renal. Besides, the TGI was 8.69 µM and 55.2 µM in the assay on HOP-92 NSCLC; 30 µM with K-562 leukemia; 40.3 µM in the assay with 786-0 renal; 33.4 µM in the assay with SK-MEL-2 melanoma; 29.1 µM with SNB-75 CNS; 9.26 µM and 41.9 µM with UO-31 renal. In addition, the results for the TGI in the assay with OVCAR-4 ovarian and in the assay on SN12C renal were 26.8 µM and 31 µM, respectively.

On to `CCc1ccc2c(c1)C(=O)c1c-2n(CCCN)c(=O)c2cc(OC)c(OC)cc12`, for which the GI50 in the assay with HOP-92 NSCLC is 1.33 µM; in the assay with K-562 leukemia, 0.306 µM; in the assay on 786-0 renal, 1.68 µM; in the assay with SK-OV-3 ovarian, 2 µM; with SNB-75 CNS, 1.96 µM; with UO-31 renal it was 1.74 µM. In addition, the GI50 in the assay on HT29 colon is 1.56 µM; in the assay with OVCAR-4 ovarian it was 1.74 µM; in the assay with SN12C renal it was 1.73 µM. Further, the TGI in the assay with HOP-92 NSCLC amounted to 2.71 µM; in the assay on K-562 leukemia, 0.907 µM; in the assay with 786-0 renal, 3.11 µM; in the assay on SK-OV-3 ovarian, 3.58 µM; with SNB-75 CNS it was 4.3 µM; in the assay on UO-31 renal, 3.32 µM. Moreover, the TGI amounted to 2.98 µM in the assay on HT29 colon, 3.2 µM in the assay with OVCAR-4 ovarian and 3.33 µM in the assay with SN12C renal.

Consider `COc1cc2c(oc(=O)c3c4occc4cc(OC)c23)c2cccc(O)c12`, for which the TGI with HOP-92 NSCLC, with K-562 leukemia, in the assay on 786-0 renal, with SK-OV-3 ovarian, with SNB-75 CNS and with UO-31 renal was greater than 100 µM each time. In addition, the TGI in the assay on HT29 colon, with OVCAR-4 ovarian and with SN12C renal was greater than 100 µM throughout.
